Experimental data as given in patent publication US12691070B2, “Cationic lipids and preparation method thereof” (RiboX Therapeutics HK Limited, priority 2023, dated 2026).

Key:
[1] = LNP zeta potential (Zetasizer); type: physicochemical
In short: (§1)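 LNPs of ionizable lipid/DSPC/cholesterol/DMG-PEG 2000 (50:10:38.5:1.5) made by microfluidic mixing of luciferase circRNA or mRNA in pH 4.5 acetate with lipids in ethanol (3:1, 12 ml/min), ionizable lipid:nucleotide 15 or 6, then dialyzed against PBS. Size, PDI (DLS) and zeta potential on Zetasizer; encapsulation by Ribogreen ± Triton X-100.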

RAW 264.7 cells [2] = test: In vitro toxicity (CellTiter-Glo cell viability), RAW 264.7; type: cell-based;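 also: percent of untreated cells luminescence signal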
In short: (§2)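 First, cells receive RNA-LNPs at 1 μg/mL by transfection. After 72 hours, CellTiter-Glo reagent is added per kit protocol. Luminescence is then read and converted to cell viability.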

BALB/C mice [3] = test: Local tolerance determination by footpad injection; type: in vivo; details: cirRNA (SEQ ID NO: 1) LNP, 0.175 mg*kg-1 subcutaneous into the footpad, 24 hours post minus prior
Method: 6-8 week old, female BALB/C mice were injected with 0.175 mg*kg-1 RNA LNPs by subcutaneous injection into the footpad. Prior to, and 24 hours post injections, injected footpad thickness was determined by a caliper.

[4] = system: Aspartate Aminotransferase (AST); test: Liver enzyme elevation in serum, AST; type: in vivo; details: cirRNA (SEQ ID NO: 1) LNPs, BALB/C mice, intravenous 0.5 MPK
Method: (§3) 6-8 week old, female BALB/C mice were injected with 0.5 mg*kg-1 of RNA LNPs by intravenous injection. At 2 and 24 hours post injection, animals were bled and sera concentrations of Alanine Aminotransferase (ALT) and Aspartate Aminotransferase (AST) were determined by a blood chemistry analyzer.

Hep G2 cells [5] = test: In vitro toxicity (CellTiter-Glo cell viability), Hep G2; type: cell-based;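 also: percent of untreated cells luminescence signal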
In short: as §2

[6] = LNP size and polydispersity index (PDI) by dynamic light scattering; type: physicochemical; details: for Size: in nm (unit assumed)
In short: as §1

[7] = RNA encapsulation efficacy by Quant-IT Ribogreen kit; type: physicochemical; details: for Encapsulation Efficiency %: LNP with cirRNA (SEQ ID NO: 1); for Encapsulation Efficiency: LNP with mRNA (SEQ ID NO: 2)
In short: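 Ribogreen read-out: encapsulation = 100% − (signal of intact RNA-LNPs / signal with Triton X-100). Particles: ionizable lipid:DSPC:Chol:DMG-PEG2000 50:10:38.5:1.5, ionizable lipid:ribonucleotide 15 or 6, final lipid 1.5–6 mM, PBS-dialyzed.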

Hep G2 cells [8] = test: In vitro expression of firefly-luciferase, Hep G2; type: cell-based
In short: (§4)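 Both cell lines receive RNA-LNPs carrying firefly-luciferase RNA at 100 ng/mL. Lysis follows washing at 72 h post-transfection, and luciferase activity is then quantified on a luminometer using a commercial luciferase assay reagent.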

RAW 264.7 cells [9] = test: In vitro expression of firefly-luciferase, RAW 264.7; type: cell-based
In short: as §4

[10] = system: Alanine Aminotransferase (ALT); test: Liver enzyme elevation in serum, ALT; type: in vivo; details: cirRNA (SEQ ID NO: 1) LNPs, BALB/C mice, intravenous 0.5 MPK
Method: as §3

MCP-I = MCP-I cytokine elevation in serum; type: in vivo; details: cirRNA (SEQ ID NO: 1) LNPs, mice
Method: 6-8 week old, female BALB/C mice were injected with 0.5 mg*kg-1 of RNA LNPs by intravenous injection. At 2 and 24 hours post injection, animals were bled and sera concentrations of MCP-I were determined by an immunoassay (Luminex).

BALB/C mice [11] = test: In vivo expression, whole-body luminescence (IVIS)
Method: 6-8 week old, female BALB/C mice were injected with 0.05 mg*kg-1 of RNA-LNPs encoding for firefly-luciferase by intravenous injection. At 6 hours post injection, animals were intraperitoneally injected with 15 mg/ml of Luciferin substrate and whole-body luminescence was determined by a bioluminescent in vivo imaging system (IVIS).

[12] = cirRNA (SEQ ID NO: 1) LNPs, RAW 264.7 cells
[13] = mRNA (SEQ ID NO: 2) LNP, 1 μg/mL, 72 hours post transfection
[14] = cirRNA (SEQ ID NO: 1) LNPs, Hep G2 cells
[15] = cirRNA (SEQ ID NO: 1) LNPs, firefly-luciferase luminescence, Hep G2 cells
[16] = mRNA (SEQ ID NO: 2) LNP, 100 ng/mL, 72 hours post transfection, luciferase activity
[17] = cirRNA (SEQ ID NO: 1) LNPs, firefly-luciferase luminescence, RAW 264.7 cells
[18] = cirRNA (SEQ ID NO: 1) LNPs, BALB/C mice
[19] = mRNA (SEQ ID NO: 2) LNP, 0.05 mg*kg-1 intravenous, 6 hours post injection

Row | Structure (SMILES) | Zeta (mV) ([1]; LNP with cirRNA (SEQ ID NO: 1)) | Zeta (mV) ([1]; LNP with mRNA (SEQ ID NO: 2)) | PDI ([6]; LNP with cirRNA (SEQ ID NO: 1)) | Size ([6]; LNP with cirRNA (SEQ ID NO: 1)) | PDI ([6]; LNP with mRNA (SEQ ID NO: 2)) | Size ([6]; LNP with mRNA (SEQ ID NO: 2)) | Encapsulation Efficiency % [7] [%] | Encapsulation Efficiency [7] [%] | In vitro Viability RAW (RAW 264.7 cells [2]; [12]) [%] | In vitro Viability RAW (RAW 264.7 cells [2]; [13]) [%] | Footpad Thickness (24 h−0 h, mm) (BALB/C mice [3]) [mm] | AST in Sera (IU/L) 2 hours After 0.5 MPK Injection [4] [IU/L] | AST in Sera (IU/L) 24 hours After 0.5 MPK Injection [4] [IU/L] | In vitro Viability HepG2 (Hep G2 cells [5]; [14]) [%] | In vitro Viability HepG2 (Hep G2 cells [5]; [13]) [%] | In vitro Expression HepG2 (Hep G2 cells [8]; [15]) | In vitro Expression HepG2 (Hep G2 cells [8]; [16]) | In vitro Expression RAW (RAW 264.7 cells [9]; [17]) | In vitro Expression RAW (RAW 264.7 cells [9]; [16]) | ALT in Sera (IU/L) 2 hours After 0.5 MPK Injection [10] [IU/L] | other results
1 | CCCCC/C=C\C/C=C\CCCCCCCCN(CCCCCCCC(=O)OC(CCCCCCCC)CCCCCCCC)CCOC(=O)NCCN(C)C [Lipid 129, heptadecan-9-yl 2-methyl-10-((9Z,12Z)-octadeca-9,12-dien-1-yl)-6-oxo-7-oxa-2,5,10-triazaoctadecan-18-oate] | 0.417 | 0.5475 | 0.08 | 88.9 | 0.1768 | 55.55 | 96 | 90 | 7 | 97 | 1.09 | 188.97 | 112.03 | 79 | 100 | 8.56E+06 | 7.03E+06 | 8.78E+06 | 1.11E+06 | 64.50 | ALT in Sera (IU/L) 24 hours After 0.5 MPK Injection [10]: 67.87 IU/L; MCP-I in Sera 2 hours After 0.5 MPK Injection (MCP-I): 3830.40 pg/mL; MCP-I in Sera 24 hours After 0.5 MPK Injection (MCP-I): 272.54 pg/mL; In vivo Expression (Whole Body) (BALB/C mice [11]; [18]): 1.69E+09; In vivo Expression (Whole Body) (BALB/C mice [11]; [19]): 1.42E+08
2 | CCCCC/C=C\C/C=C\CCCCCCCCN(CCCCCCCC(=O)OC(CCCCCCCC)CCCCCCCC)CCOC(=O)NCCCN(CC)CC [Lipid 131, heptadecan-9-yl 3-ethyl-12-((9Z,12Z)-octadeca-9,12-dien-1-yl)-8-oxo-9-oxa-3,7,12-triazaicosan-20-oate] | 5.61 | 15.29 | 0.22 | 74.78 | 0.1606 | 84.16 | 96 | 90.68 | 77 | 96 | 1.17 | 161.27 | 83.17 | 83 | 89 | 4.49E+06 | 5.66E+06 | 4.04E+06 | 9.55E+05 | 51.17 | ALT in Sera (IU/L) 24 hours After 0.5 MPK Injection [10]: 44.57 IU/L; MCP-I in Sera 2 hours After 0.5 MPK Injection (MCP-I): 5003.82 pg/mL; MCP-I in Sera 24 hours After 0.5 MPK Injection (MCP-I): 16.42 pg/mL; In vivo Expression (Whole Body) (BALB/C mice [11]; [18]): 2.27E+08; In vivo Expression (Whole Body) (BALB/C mice [11]; [19]): 4.52E+07
3 | CCCCC/C=C\C/C=C\CCCCCCCCN(CCCCCCCC(=O)OC(CCCCCCCC)CCCCCCCC)CCOC(=O)NCc1ncc[nH]1 [Lipid 132, heptadecan-9-yl 8-((2-((((1H-imidazol-2-yl)methyl)carbamoyl)oxy)ethyl)((9Z,12Z)-octadeca-9,12-dien-1-yl)amino)octanoate] | −0.7024 | −8.336 | 0.072 | 91.78 | 0.2359 | 56.12 | 97 | 89.06 | 108 | 93 | 1.24 | 136.00 | 72.53 | 97 | 80 | 1.44E+05 | 1.83E+05 | 4.24E+05 | 1.27E+05 | 65.03 | ALT in Sera (IU/L) 24 hours After 0.5 MPK Injection [10]: 44.73 IU/L; MCP-I in Sera 2 hours After 0.5 MPK Injection (MCP-I): 28.53 pg/mL; MCP-I in Sera 24 hours After 0.5 MPK Injection (MCP-I): 96.56 pg/mL; In vivo Expression (Whole Body) (BALB/C mice [11]; [18]): 6.13E+08; In vivo Expression (Whole Body) (BALB/C mice [11]; [19]): 6.62E+08

Second part, led by results:

Row | Zeta (mV) ([1]; LNP with cirRNA (SEQ ID NO: 1)) | Zeta (mV) ([1]; LNP with mRNA (SEQ ID NO: 2)) | PDI ([6]; LNP with cirRNA (SEQ ID NO: 1)) | Size ([6]; LNP with cirRNA (SEQ ID NO: 1)) | PDI ([6]; LNP with mRNA (SEQ ID NO: 2)) | Size ([6]; LNP with mRNA (SEQ ID NO: 2)) | Encapsulation Efficiency % [7] [%] | Encapsulation Efficiency [7] [%] | Structure (SMILES) | In vitro Viability RAW (RAW 264.7 cells [2]; [12]) [%] | In vitro Viability RAW (RAW 264.7 cells [2]; [13]) [%] | Footpad Thickness (24 h−0 h, mm) (BALB/C mice [3]) [mm] | AST in Sera (IU/L) 2 hours After 0.5 MPK Injection [4] [IU/L] | AST in Sera (IU/L) 24 hours After 0.5 MPK Injection [4] [IU/L] | In vitro Viability HepG2 (Hep G2 cells [5]; [14]) [%] | In vitro Viability HepG2 (Hep G2 cells [5]; [13]) [%] | In vitro Expression HepG2 (Hep G2 cells [8]; [15]) | In vitro Expression HepG2 (Hep G2 cells [8]; [16]) | In vitro Expression RAW (RAW 264.7 cells [9]; [17]) | In vitro Expression RAW (RAW 264.7 cells [9]; [16]) | ALT in Sera (IU/L) 2 hours After 0.5 MPK Injection [10] [IU/L] | other results
4 | 0.282 | 6.141 | 0.1 | 93.54 | 0.1021 | 75.38 | 94 | 91 | CCCCC/C=C\C/C=C\CCCCCCCCN(CCCCCCCC(=O)OC(CCCCCCCC)CCCCCCCC)CCOC(=O)NCCN1CCCC1 [Lipid 128, heptadecan-9-yl 8-(((9Z,12Z)-octadeca-9,12-dien-1-yl)(2-(((2-(pyrrolidin-1-yl)ethyl)carbamoyl)oxy)ethyl)amino)octanoate] | 59 | 92 | 0.98 | 195.53 | 131.30 | 103 | 94 | 4.01E+06 | 2.16E+07 | 5.15E+06 | 1.72E+06 | 58.17 | ALT in Sera (IU/L) 24 hours After 0.5 MPK Injection [10]: 56.00 IU/L; MCP-I in Sera 2 hours After 0.5 MPK Injection (MCP-I): 6355.24 pg/mL; MCP-I in Sera 24 hours After 0.5 MPK Injection (MCP-I): 318.11 pg/mL; In vivo Expression (Whole Body) (BALB/C mice [11]; [18]): 5.46E+08; In vivo Expression (Whole Body) (BALB/C mice [11]; [19]): 6.98E+08
5 | −2.35 | 3.769 | 0.03 | 93.46 | 0.07065 | 122.1 | 95 | 93.50 | CCCCCCCCC(CCCCCCCC)OC(=O)CCCCCCCN(CCCCCCCCOC(=O)C(CCCCCC)CCCCCCCC)CCOC(=O)NCCN1CCCC1 (centres unmarked) [Lipid 148, 8-((8-(heptadecan-9-yloxy)-8-oxooctyl)(2-(((2-(pyrrolidin-1-yl)ethyl)carbamoyl)oxy)ethyl)amino)octyl 2-hexyldecanoate] | 21 | 102 | 0.23 | 136.17 | 108.13 | 47 | 128 | 2.35E+06 | 6.39E+02 | 2.40E+05 | 8.69E+05 | 53.60 | ALT in Sera (IU/L) 24 hours After 0.5 MPK Injection [10]: 59.93 IU/L; MCP-I in Sera 2 hours After 0.5 MPK Injection (MCP-I): 6709.61 pg/mL; MCP-I in Sera 24 hours After 0.5 MPK Injection (MCP-I): 69.59 pg/mL; In vivo Expression (Whole Body) (BALB/C mice [11]; [18]): 5.07E+08; In vivo Expression (Whole Body) (BALB/C mice [11]; [19]): 1.69E+09
